Data as given in patent US9149475B2, “Protein kinase C inhibitors and uses thereof” (Rigel Pharmaceuticals, Inc., priority 2009, dated 2015).

Tested on: Human primary T cells
Assay: IL-2 ELISA, human primary T cell, anti-CD3+CD28+ (whole cell assay)
Assay type: cell-based
Details: Homo sapiens, T-cell, 24 h, human primary T cells stimulated with anti-CD3 + anti-CD28, 24 hours
Procedure, shortened: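 PBMC-derived T cells, pre-expanded on αCD3/αCD28 with IL-2 and then washed free of IL-2, were preincubated with compound for 1 hr at 37° C (100,000 cells/well). They were then stimulated on 1 μg/ml αCD3 plus 5 μg/ml αCD28 for 24 h, and supernatant IL-2 was measured by ELISA. The counter-assay used 0.5 ng/ml PMA plus 0.1 μM ionomycin instead.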

CSc1nnnn1-c1cccc(Nc2ncc(F)c(NC3CC(C)N(C4CC4)C(C)C3)n2)c1 (stereo not drawn) [III-10, N^4-(1-cyclopropyl-2,6-dimethylpiperidin-4-yl)-5-fluoro-N2-(3-(5-(methylthio)-1H-tetrazol-1-yl)phenyl)pyrimidine-2,4-diamine]
IC50: 250 to 500 nM

CC1CC(Nc2nc(Nc3ccc(F)c(-n4cnnn4)c3)ncc2F)CC(C)N1C1CC1 (stereo not drawn) [III-11, N^4-(1-cyclopropyl-2,6-dimethylpiperidin-4-yl)-5-fluoro-N^2-(4-fluoro-3-(1H-tetrazol-1-yl)phenyl)pyrimidine-2,4-diamine]
IC50: 250 to 500 nM

CC(=O)N1CCC(Oc2ccc(Nc3ncc(F)c(NC4CC(C)(C)N(C)C(C)(C)C4)n3)cc2F)CC1 [III-12, 1-(4-(2-fluoro-4-(5-fluoro-4-(1,2,2,6,6-pentamethylpiperidin-4-ylamino)pyrimidin-2-ylamino)phenoxy)piperidin-1-yl)ethanone]
IC50: > 1000 nM

CC(=O)N1CCC(Oc2ccc(Nc3ncc(F)c(NC4CC(C)(C)NC(C)(C)C4)n3)cc2F)CC1 [III-13, 1-(4-(2-fluoro-4-(5-fluoro-4-(2,2,6,6-tetramethylpiperidin-4-ylamino)pyrimidin-2-ylamino)phenoxy)piperidin-1-yl)ethanone]
IC50: > 1000 nM

CN1C(C)(C)CC(Nc2nc(Nc3ccc(OC4CCN(S(C)(=O)=O)CC4)c(F)c3)ncc2F)CC1(C)C [III-14, 5-fluoro-N2-(3-fluoro-4-(1-(methylsulfonyl)piperidin-4-yloxy)phenyl)-N4-(1,2,2,6,6-pentamethylpiperidin-4-yl)pyrimidine-2,4-diamine]
IC50: > 1000 nM

CC1(C)CC(Nc2nc(Nc3ccc(OC4CCN(S(C)(=O)=O)CC4)c(F)c3)ncc2F)CC(C)(C)N1 [III-15, 5-fluoro-N2-(3-fluoro-4-(1-(methylsulfonyl)piperidin-4-yloxy)phenyl)-N4-(2,2,6,6-tetramethylpiperidin-4-yl)pyrimidine-2,4-diamine]
IC50: > 1000 nM

CCNC(=O)N1CCC(Oc2ccc(Nc3ncc(F)c(NC4CC(C)(C)N(C)C(C)(C)C4)n3)cc2F)CC1 [III-16, N-ethyl-4-(2-fluoro-4-(5-fluoro-4-(1,2,2,6,6-pentamethylpiperidin-4-ylamino)pyrimidin-2-ylamino)phenoxy)piperidine-1-carboxamide]
IC50: > 1000 nM

CCNC(=O)N1CCC(Oc2ccc(Nc3ncc(F)c(NC4CC(C)(C)NC(C)(C)C4)n3)cc2F)CC1 [III-17, N-ethyl-4-(2-fluoro-4-(5-fluoro-4-(2,2,6,6-tetramethylpiperidin-4-ylamino)pyrimidin-2-ylamino)phenoxy)piperidine-1-carboxamide]
IC50: > 1000 nM

CC(C)N1CCC(Oc2ccc(Nc3ncc(F)c(NC4CC(C)(C)N(C)C(C)(C)C4)n3)cc2F)CC1 [III-18, 5-fluoro-N2-(3-fluoro-4-(1-isopropylpiperidin-4-yloxy)phenyl)-N4-(1,2,2,6,6-pentamethylpiperidin-4-yl)pyrimidine-2,4-diamine]
IC50: < 250 nM

CC(C)N1CCC(Oc2ccc(Nc3ncc(F)c(NC4CC(C)(C)NC(C)(C)C4)n3)cc2F)CC1 [III-19, 5-fluoro-N2-(3-fluoro-4-(1-isopropylpiperidin-4-yloxy)phenyl)-N4-(2,2,6,6-tetramethylpiperidin-4-yl)pyrimidine-2,4-diamine]
IC50: 250 to 500 nM

CN1C(C)(C)CC(Nc2nc(Nc3ccc(OC4CCN(S(C)(=O)=O)CC4)c(OC(F)F)c3)ncc2F)CC1(C)C [III-20, N2-(3-(difluoromethoxy)-4-(1-(methylsulfonyl)piperidin-4-yloxy)phenyl)-5-fluoro-N4-(1,2,2,6,6-pentamethylpiperidin-4-yl)pyrimidine-2,4-diamine]
IC50: 250 to 500 nM

CC1(C)CC(Nc2nc(Nc3ccc(OC4CCN(S(C)(=O)=O)CC4)c(OC(F)F)c3)ncc2F)CC(C)(C)N1 [III-21, N2-(3-(difluoromethoxy)-4-(1-(methylsulfonyl)piperidin-4-yloxy)phenyl)-5-fluoro-N4-(2,2,6,6-tetramethylpiperidin-4-yl)pyrimidine-2,4-diamine]
IC50: 500 to 1000 nM
